Reference: US20260159525A1, “TRICYCLIC HETEROCYCLES” (Merck Patent GmbH, priority 2021, published 2026)

Key:
Assay type in all cases: cell-based
NCI-H226 cells = experiment: Viability assay in NCI-H226 (Yap-dependent) cells, CyQUANT; conditions: Homo sapiens, NCI-H226 YAP dependent cell line, 96 hour incubation, group symbols
Experimental: (§1) Viability Assay in NCI-H226 (Yap-Dependent) and SW620 Yap KO (Yap Independent) Cells
(§2) The ability of YAP-TEAD inhibitors to inhibit tumor cell growth was evaluated using two different cell lines: NCI-H226, which is a YAP dependent cell line, and SW620 cells, where YAP and TAZ were knocked out using CRISPR to generate a YAP independent cell line.
(§3) For the assay, cells were treated in duplicates with the test compounds in a 10-point dose, 1:3 dilution steps, with the top concentration starting at 30 μM (final concentration in assay). After a 96 hour incubation at 37° C., 95% rH, and 5% CO2, a cell-permeant DNA-binding dye that stains only healthy cells (CyQUANT®, Promega) was added to the cells, allowing the quantification of cell viability.
(§4) Cell Media: The NCI-H226 cells were cultured in the following media: RPMI 1640, +10% FBS, +1× GlutaMAX, +10 mM HEPES, +0.5% Pen/Strep. The SW620-KO cells were cultured in the following media: DMEM/F-12, +10% FBS, +1× GlutaMAX, +10 mM HEPES, +0.5% Pen/Strep.
(§5) Reagents: The reagents used are listed below:
(§6) Cell culture: The cells were examined using an inverted microscope to check for health, cell density, etc. To dissociate adherent cells, the monolayer of cells was washed once with pre-warmed PBS. After removing the PBS, 3 ml pre-warmed Accutase was added to a F75 flask, dispersed evenly and the flask was allowed to sit in incubator for ˜4-5 minutes.
(§7) When a single cell suspension was obtained, 7 ml of prewarmed growth media was added and resuspended with the cells. The cell suspension was transferred to a sterile 15 ml conical centrifuge tube, and spun for 5 min at 300×g, RT. The supernatant was discarded and the pellet was resuspended in 10 ml of pre-warmed growth media.
(§8) The total cell count was determined, and 20 μl of the desired cell number was added to each well of a 384 well plate using a Multidrop Combi. The plates were then incubated for 24 hours at 37° C., 95% rH, and 5% CO2.
(§9) Compound treatment: 24 hours after seeding, the cells were treated with compounds.
(§10) A 1:333 dilution of compounds, diluted in DMSO, was made to get a final concentration of 0.3% DMSO per well. To transfer the compounds to the assay plate, 120 nl was shot from Labcyte low dead volume plates to the cell plates containing 20 μl media/well with the ECHO 555 liquid handling system. After treatment, the cells were fed with 20 μl fresh pre-warmed assay media using a Multidrop combi.
(§11) The assay plates were then incubated for 96 h at 37° C., 95% rH, and 5% CO2.
(§12) 96 h after treatment 30 μl of CyQuant® reagent was added to the assay plates using a Multidrop combi in the dark. The plates were then incubated for 1 hour at 37° C., 95% rH and 5% CO2. Thereafter, the assay plates were removed from the incubator and allowed to equilibrate to RT for 30 min in the dark without lid. Finally, they were measured using an EnVision microplate reader with a FITC bottom read program.

YAP-TEAD interaction = experiment: SK-HEP-1 reporter assay (8x TEAD responsive elements driving NanoLuc luciferase); conditions: Homo sapiens, SK-HEP1, SK-HEP-1 cells, 24 hour incubation
Procedure, shortened: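 SK-HEP-1 cells carrying a stably integrated 8× TEAD-element NanoLuc reporter, seeded 24 h before dosing, were treated in duplicate with a 10-point dose series (top 30 μM final, 0.3% DMSO) for 24 h at 37°C, 5% CO2. Luciferase activity read by NanoGlo luminescence; IC50 derived from it.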

SW620 Yap KO cells = experiment: Viability assay in SW620 Yap KO (Yap independent) cells, CyQUANT; conditions: Homo sapiens, SW-620, SW620 YAP and TAZ knocked out (YAP independent), 96 hour incubation
Experimental: as §1, §2, §3, §4, §5, §6, §7, §8, §9, §10, §11, §12

[1] = n.d. (x) = not detectable below threshold x
[2] = number, or n.d. (x) = not detectable below threshold x

SMILES	IC50 (NCI-H226 cells) [nM]	IC50 (YAP-TEAD interaction; group symbols) [nM]	IC50 (SW620 Yap KO cells; [1]) [nM]	IC50 (SW620 Yap KO cells; group symbols) [nM]	IC50 (YAP-TEAD interaction; [2]) [nM]
CNC(=O)c1cc2c(s1)c1c(ncn1C)n2-c1ccc(C(F)(F)F)cc1 [Compound 21, N,3-dimethyl-7-[4-(trifluoromethyl)phenyl]-11-thia-3,5,7-triazatricyclo[6.3.0.0^2,6]undeca-1(8),2(6),4,9-tetraene-10-carboxamide]	100 to 1000	100 to 10000		1000 to 10000	
Cn1nc2c3sc(C(=O)O)cc3n(-c3ccc(OC(F)(F)F)cc3)c2n1 [Compound 27, 4-methyl-7-[4-(trifluoromethoxy)phenyl]-11-thia-3,4,5,7-tetraazatricyclo[6.3.0.0^2,6]undeca-1(8),2,5,9-tetraene-10-carboxylic acid]	100 to 1000	10 to 100	> 30000		
C[C@H](CO)NC(=O)c1cc2c3cn(C)nc3n(-c3ccc(C(F)(F)F)cc3)c2s1 [Compound 33, N-[(2R)-1-hydroxypropan-2-yl]-4-methyl-7-[4-(trifluoromethyl)phenyl]-9-thia-4,5,7-triazatricyclo[6.3.0.0^2,6]undeca-1(8),2,5,10-tetraene-10-carboxamide]	1 to 100	10 to 100	> 3200		
Cn1cc2c3cc(C(=O)N[C@@H](CO)c4ccccn4)sc3n(-c3ccc(C(F)(F)F)cc3)c2n1 [Compound 35, N-[(1R)-2-hydroxy-1-(pyridin-2-yl)ethyl]-4-methyl-7-[4-(trifluoromethyl)phenyl]-9-thia-4,5,7-triazatricyclo[6.3.0.0^2,6]undeca-1(8),2,5,10-tetraene-10-carboxamide]	1 to 100	10 to 100	> 3200		
Cn1cc2c3sc(C(=O)O)cc3n(C[C@H]3C[C@H](C(F)(F)F)C3)c2n1 [Compound 37, 10-methyl-7-{[(1r,3r)-3-(trifluoromethyl)cyclobutyl]methyl}-3-thia-7,9,10-triazatricyclo[6.3.0.0^2,6]undeca-1(11),2(6),4,8-tetraene-4-carboxylic acid]	1000 to 10000	100 to 10000	> 30000		
Cn1cc2c3cc(C(=O)O)sc3n(-c3ccc(SC(F)(F)F)cc3)c2n1 [Compound 40, 4-methyl-7-{4-[(trifluoromethyl)sulfanyl]phenyl}-9-thia-4,5,7-triazatricyclo[6.3.0.0^2,6]undeca-1(8),2,5,10-tetraene-10-carboxylic acid]	1 to 100	10 to 100	> 30000		
C[C@H](O)CNC(=O)c1cc2c3cn(C)nc3n(-c3ccc(C(F)(F)F)cc3)c2s1 [Compound 43, N-[(2S)-2-hydroxypropyl]-4-methyl-7-[4-(trifluoromethyl)phenyl]-9-thia-4,5,7-triazatricyclo[6.3.0.0^2,6]undeca-1(8),2,5,10-tetraene-10-carboxamide]	1 to 100		> 3000		> 9500
C[C@@H](O)CNC(=O)c1cc2c3cn(C)nc3n(-c3ccc(C(F)(F)F)cc3)c2s1 [Compound 44, N-[(2R)-2-hydroxypropyl]-4-methyl-7-[4-(trifluoromethyl)phenyl]-9-thia-4,5,7-triazatricyclo[6.3.0.0^2,6]undeca-1(8),2,5,10-tetraene-10-carboxamide]	1 to 100		> 3000		> 9500
C[C@H](CO)NC(=O)c1cc2c3cn(C)nc3n(-c3ccc(OC(F)(F)F)cc3)c2s1 [Compound 50, N-[(2R)-1-hydroxypropan-2-yl]-4-methyl-7-[4-(trifluoromethoxy)phenyl]-9-thia-4,5,7-triazatricyclo[6.3.0.0^2,6]undeca-1(8),2,5,10-tetraene-10-carboxamide]	1 to 100	100 to 10000	> 30000		

Results, then the compound that gave them:

IC50 (NCI-H226 cells) [nM]	IC50 (YAP-TEAD interaction; group symbols) [nM]	IC50 (SW620 Yap KO cells; [1]) [nM]	IC50 (SW620 Yap KO cells; group symbols) [nM]	IC50 (YAP-TEAD interaction; [2]) [nM]	SMILES
100 to 1000	10 to 100	> 30000			Cn1cnc2c1c1sc(C(=O)O)cc1n2-c1ccc(C(F)(F)F)cc1 [Compound 20, 3-methyl-7-[4-(trifluoromethyl)phenyl]-11-thia-3,5,7-triazatricyclo[6.3.0.0^2,6]undeca-1(8),2(6),4,9-tetraene-10-carboxylic acid]
100 to 1000	10 to 100	> 30000			Cc1nc2c3sc(C(=O)O)cc3n(-c3ccc(C(F)(F)F)cc3)c2s1 [Compound 22, 4-methyl-7-[4-(trifluoromethyl)phenyl]-5,11-dithia-3,7-diazatricyclo[6.3.0.0^2,6]undeca-1(8),2(6),3,9-tetraene-10-carboxylic acid]
100 to 1000	10 to 100	> 30000			Cc1nc2c3sc(C(=O)O)cc3n(-c3ccc(OC(F)(F)F)cc3)c2s1 [Compound 25, 4-methyl-7-[4-(trifluoromethoxy)phenyl]-5,11-dithia-3,7-diazatricyclo[6.3.0.0^2,6]undeca-1(8),2(6),3,9-tetraene-10-carboxylic acid]
1 to 100	> 10000	> 3200			Cn1cc2c3cc(C(=O)NCc4ccncc4)sc3n(-c3ccc(C(F)(F)F)cc3)c2n1 [Compound 31, 4-methyl-N-[(pyridin-4-yl)methyl]-7-[4-(trifluoromethyl)phenyl]-9-thia-4,5,7-triazatricyclo[6.3.0.0^2,6]undeca-1(8),2,5,10-tetraene-10-carboxamide]
100 to 1000	100 to 10000	> 30000			Cn1cc2c3sc(C(=O)O)cc3n(C[C@H]3C[C@@H](C(F)(F)F)C3)c2n1 [Compound 36, 10-methyl-7-{[(1s,3s)-3-(trifluoromethyl)cyclobutyl]methyl}-3-thia-7,9,10-triazatricyclo[6.3.0.0^2,6]undeca-1(11),2(6),4,8-tetraene-4-carboxylic acid]
1 to 100			1000 to 10000	> 9500	Cn1cc2c3cc(C(=O)NCc4cccnc4)sc3n(-c3ccc(C(F)(F)F)cc3)c2n1 [Compound 45, 4-methyl-N-[(pyridin-3-yl)methyl]-7-[4-(trifluoromethyl)phenyl]-9-thia-4,5,7-triazatricyclo[6.3.0.0^2,6]undeca-1(8),2,5,10-tetraene-10-carboxamide]
1 to 100	1 to 10	> 3000			CCNC(=O)c1cc2c3cn(C)nc3n(-c3ccc(C(F)(F)F)cc3)c2s1 [Compound 46, N-ethyl-4-methyl-7-[4-(trifluoromethyl)phenyl]-9-thia-4,5,7-triazatricyclo[6.3.0.0^2,6]undeca-1(8),2,5,10-tetraene-10-carboxamide]
1 to 100	10 to 100		1000 to 10000		CNC(=O)c1cc2c3cn(C)nc3n(-c3ccc(C(F)(F)F)cn3)c2s1 [Compound 47, N,4-dimethyl-7-[5-(trifluoromethyl)pyridin-2-yl]-9-thia-4,5,7-triazatricyclo[6.3.0.0^2,6]undeca-1(8),2,5,10-tetraene-10-carboxamide]
1 to 100			10000 to 30000	> 30000	C[C@H](CO)NC(=O)c1cc2c3cn(C)nc3n(-c3ccc(C(F)(F)F)cn3)c2s1 [Compound 48, N-[(2R)-1-hydroxypropan-2-yl]-4-methyl-7-[5-(trifluoromethyl)pyridin-2-yl]-9-thia-4,5,7-triazatricyclo[6.3.0.0^2,6]undeca-1(8),2,5,10-tetraene-10-carboxamide]
1 to 100	10 to 100	> 3000			CNC(=O)c1cc2c3cn(C)nc3n(-c3ccc(OC(F)(F)F)cc3)c2s1 [Compound 49, N,4-dimethyl-7-[4-(trifluoromethoxy)phenyl]-9-thia-4,5,7-triazatricyclo[6.3.0.0^2,6]undeca-1(8),2,5,10-tetraene-10-carboxamide]
